Where two headings read alike, the source gives them in different places.
Experiments:
[1] = test system: BHK-21 cells; assay: Inhibitory effects of steroids on BHK-21 cells; assay type: cell-based, hamster; conditions: for activity at 0.5 µg/mL / activity at 1 µg/mL / activity at 5 µg/mL / activity at 25 µg/mL / activity at 50 µg/mL: Mesocricetus auratus, read-out: % of control cell numbers
[2] = test system: BHK-21 cells; assay: Effects of WHS on BHK-21 cells in the presence of steroids; assay type: cell-based, hamster; conditions: steroid 50 μg/ml alone
[3] = test system: human cutaneous fibroblasts; conditions: cited from earlier work; for growth inhibition of incubated human cutaneous fibroblasts: listed in descending order of inhibition
[4] = test system: mouse fibroblasts; conditions: with protoplasmic vacuolation; cited from earlier work
[5] = BHK-21, 48 h, 0.5 μg/ml, 2 days
[6] = BHK-21, 48 h, 1.0 μg/ml, 2 days
[7] = BHK-21, 48 h, 5.0 μg/ml, 2 days
[8] = BHK-21, 48 h, 25.0 μg/ml, 2 days
[9] = BHK-21, 48 h, 50.0 μg/ml, 2 days
[10] = BHK-21, 96 h, 0.5 μg/ml, 4 days
[11] = BHK-21, 96 h, 1.0 μg/ml, 4 days
[12] = BHK-21, 96 h, 5.0 μg/ml, 4 days
[13] = BHK-21, 96 h, 25.0 μg/ml, 4 days
[14] = BHK-21, 96 h, 50.0 μg/ml, 4 days
[15] = BHK-21, 144 h, 0.5 μg/ml, 6 days
[16] = BHK-21, 144 h, 1.0 μg/ml, 6 days
[17] = BHK-21, 144 h, 5.0 μg/ml, 6 days
[18] = BHK-21, 144 h, 25.0 μg/ml, 6 days
[19] = BHK-21, 144 h, 50.0 μg/ml, 6 days

Row | SMILES | cell numbers ([1]; 0.5 μg/ml, 2 days) | cell numbers ([1]; 0.5 μg/ml, 4 days) | cell numbers ([1]; 0.5 μg/ml, 6 days) | cell numbers ([1]; 1.0 μg/ml, 2 days) | cell numbers ([1]; 1.0 μg/ml, 4 days) | cell numbers ([1]; 1.0 μg/ml, 6 days) | cell numbers ([1]; 5.0 μg/ml, 2 days) | cell numbers ([1]; 5.0 μg/ml, 4 days) | cell numbers ([1]; 5.0 μg/ml, 6 days) | cell numbers ([1]; 25.0 μg/ml, 2 days) | cell numbers ([1]; 25.0 μg/ml, 4 days) | cell numbers ([1]; 25.0 μg/ml, 6 days) | cell numbers ([1]; 50.0 μg/ml, 2 days) | cell numbers ([1]; 50.0 μg/ml, 4 days) | cell numbers ([1]; 50.0 μg/ml, 6 days) | activity at 0.5 µg/mL [1, 5] | activity at 1 µg/mL [1, 6] | activity at 5 µg/mL [1, 7] | activity at 25 µg/mL [1, 8] | growth inhibition of incubated human cutaneous fibroblasts [3] | further results
1 | C[C@@H]1C[C@H]2[C@@H]3CCC4=CC(=O)C=C[C@]4(C)[C@@]3(F)[C@@H](O)C[C@]2(C)[C@@]1(O)C(=O)CO [Dexamethasone, dexamethasone] | 0.92 × 10^5 cells/dish | 2.32 × 10^5 cells/dish | 2.51 × 10^5 cells/dish | 0.87 × 10^5 cells/dish | 2.31 × 10^5 cells/dish | 2.54 × 10^5 cells/dish | 0.84 × 10^5 cells/dish | 2.22 × 10^5 cells/dish | 2.57 × 10^5 cells/dish | 0.71 × 10^5 cells/dish | 1.71 × 10^5 cells/dish | 2.33 × 10^5 cells/dish | 0.62 × 10^5 cells/dish | 1.24 × 10^5 cells/dish | 1.84 × 10^5 cells/dish | 94.8% | 89.7% | 86.6% | 73.2% | – | activity at 50 µg/mL [1, 9]: 63.9%; activity at 0.5 µg/mL [1, 10]: 87.2%; activity at 1 µg/mL [1, 11]: 86.8%; activity at 5 µg/mL [1, 12]: 83.5%; activity at 25 µg/mL [1, 13]: 64.3%; activity at 50 µg/mL [1, 14]: 46.6%; activity at 0.5 µg/mL [1, 15]: 97.3%; activity at 1 µg/mL [1, 16]: 98.4%; activity at 5 µg/mL [1, 17]: 99.6%; activity at 25 µg/mL [1, 18]: 90.3%; activity at 50 µg/mL [1, 19]: 71.3%; cell numbers ([2]; 2nd day): 0.87 × 10^5 cells/dish; cell numbers ([2]; 4th day): 1.28 × 10^5 cells/dish
2 | C[C@]12CCC(=O)C=C1CC[C@@H]1[C@@H]2[C@@H](O)C[C@@]2(C)[C@H]1CC[C@]2(O)C(=O)CO [Hydrocortisone, hydrocortisone] | 13.0 × 10^5 cells/dish | 24.0 × 10^5 cells/dish | 25.6 × 10^5 cells/dish | 12.5 × 10^5 cells/dish | 23.8 × 10^5 cells/dish | 25.1 × 10^5 cells/dish | 12.0 × 10^5 cells/dish | 21.9 × 10^5 cells/dish | 25.2 × 10^5 cells/dish | 9.3 × 10^5 cells/dish | 17.1 × 10^5 cells/dish | 22.6 × 10^5 cells/dish | 8.2 × 10^5 cells/dish | 10.8 × 10^5 cells/dish | 10.0 × 10^5 cells/dish | 105% | 101% | 96.8% | 75% | inhibited | activity at 50 µg/mL [1, 9]: 66.1%; activity at 0.5 µg/mL [1, 10]: 92.7%; activity at 1 µg/mL [1, 11]: 91.7%; activity at 5 µg/mL [1, 12]: 84.6%; activity at 25 µg/mL [1, 13]: 66%; activity at 50 µg/mL [1, 14]: 41.7%; activity at 0.5 µg/mL [1, 15]: 98.5%; activity at 1 µg/mL [1, 16]: 96.5%; activity at 5 µg/mL [1, 17]: 96.9%; activity at 25 µg/mL [1, 18]: 86.9%; activity at 50 µg/mL [1, 19]: 40%; cell numbers ([2]; 2nd day): 8.2 × 10^5 cells/dish; cell numbers ([2]; 4th day): 12.6 × 10^5 cells/dish
3 | C[C@]12C=CC(=O)C=C1CC[C@@H]1[C@@H]2[C@@H](O)C[C@@]2(C)[C@H]1CC[C@]2(O)C(=O)CO [Prednisolone, prednisolone] | 1.20 × 10^5 cells/dish | 2.43 × 10^5 cells/dish | 2.51 × 10^5 cells/dish | 1.20 × 10^5 cells/dish | 2.45 × 10^5 cells/dish | 2.50 × 10^5 cells/dish | 1.09 × 10^5 cells/dish | 2.33 × 10^5 cells/dish | 2.48 × 10^5 cells/dish | 0.85 × 10^5 cells/dish | 1.49 × 10^5 cells/dish | 1.91 × 10^5 cells/dish | 0.73 × 10^5 cells/dish | 1.01 × 10^5 cells/dish | 0.98 × 10^5 cells/dish | 91.6% | 91.6% | 83.2% | 64.9% | – | activity at 50 µg/mL [1, 9]: 55.7%; activity at 0.5 µg/mL [1, 10]: 89.3%; activity at 1 µg/mL [1, 11]: 90.1%; activity at 5 µg/mL [1, 12]: 85.7%; activity at 25 µg/mL [1, 13]: 54.8%; activity at 50 µg/mL [1, 14]: 37.1%; activity at 0.5 µg/mL [1, 15]: 94.7%; activity at 1 µg/mL [1, 16]: 94.3%; activity at 5 µg/mL [1, 17]: 93.6%; activity at 25 µg/mL [1, 18]: 72.1%; activity at 50 µg/mL [1, 19]: 37%; cell numbers ([2]; 2nd day): 0.78 × 10^5 cells/dish; cell numbers ([2]; 4th day): 0.94 × 10^5 cells/dish
4 | CCCCC(=O)O[C@]1(C(=O)CO)[C@@H](C)C[C@H]2[C@@H]3CCC4=CC(=O)C=C[C@]4(C)[C@@]3(F)[C@@H](O)C[C@@]21C [betamethasone-17-valerate] | – | – | – | – | – | – | – | – | – | – | – | – | – | – | – | – | – | – | – | inhibited | –
5 | CCC(=O)OCC(=O)[C@@]1(OC(=O)CC)[C@@H](C)C[C@H]2[C@@H]3CCC4=CC(=O)C=C[C@]4(C)[C@@]3(F)[C@@H](O)C[C@@]21C [betamethasonedipropionate] | – | – | – | – | – | – | – | – | – | – | – | – | – | – | – | – | – | – | – | inhibited | –
6 | CCC(=O)O[C@]1(C(=O)CCl)[C@@H](C)C[C@H]2[C@@H]3CCC4=CC(=O)C=C[C@]4(C)[C@@]3(F)[C@@H](O)C[C@@]21C [clobetasol-17-propionate] | – | – | – | – | – | – | – | – | – | – | – | – | – | – | – | – | – | – | – | inhibited | denaturation of human fibroblastic nuclei and protoplasms ([3]; 25 μg/ml): caused human fibroblastic nuclei and protoplasms to denature
7 | C[C@]12CCC(=O)C=C1CC[C@@H]1[C@@H]2[C@@H](O)C[C@@]2(C)[C@H]1CC[C@]2(O)C(=O)CO [cortisol] | – | – | – | – | – | – | – | – | – | – | – | – | – | – | – | – | – | – | – | – | growth of incubated mouse fibroblasts [4]: inhibited growth
8 | CCCC(=O)O[C@]1(C(=O)CO)CC[C@H]2[C@@H]3CCC4=CC(=O)CC[C@]4(C)[C@H]3[C@@H](O)C[C@@]21C [hydrocortisone-butylate] | – | – | – | – | – | – | – | – | – | – | – | – | – | – | – | – | – | – | – | inhibited | –
